Legend:
[1] = test system: PBMC; experiment: Human PBMC IL-2 assay; type: cell-based; details: anti-CD3/CD28 stimulation overnight, IL-2 level
Protocol: PBMC (frozen) obtained from health donor were thawed in RPMI-1640 medium with 10% FBS and incubated for 4 h at 37° C. In a 96-well plate, −200,000 PBMC cells in 160 uL were added to each assay well. Ten microliter compound solution (10 uM to 0.6 nM, 8 points with 4-fold dilution) were added to cells in each well and incubated for 60 minutes at 37° C. Then 30 uL anti-CD3/CD28 antibody (Catalog #10991, Stemcell) were added to cells and incubated overnight at 37° C. After the incubation, 16 uL supernatants were transferred into a new 384-well white assay plate for cytokine analysis. IL-2 level was quantified using Human IL-2 kit (Catalog #62HIL02PEG, Cisbio) as described in the manufacturer manual.
(§1) X is log of compound concentration, Y is the IL-2 concentration, increasing as X increases.

[2] = test system: Jurkat cells; experiment: Jurkat IL-2 assay; type: cell-based; details: Homo sapiens, anti-CD3/CD28 stimulation overnight, IL-2 level
Protocol: Jurkat cells (ATCC) were cultured in RPMI-1640 medium supplemented with 10% FBS. In a 96-well plate, −250,000 cells in 130 uL were added to each assay well. Ten microliter compound solution (5 uM to 2.3 nM, 8 points with 3-fold dilution) were added to cells in each well and incubated for 60 minutes at 37° C. Then 10 uL anti-CD3/CD28 antibody (Catalog #10991, Stemcell) were added and incubated overnight at 37° C. After the incubation, 16 uL supernatants were transferred into a new 384-well white assay plate for cytokine analysis. IL-2 was quantified using Human IL-2 kit (Catalog #62HIL02PEG, Cisbio) as described in the manufacturer manual.
as §1

| Structure (SMILES) | EC50 [2] | EC50 [1] |
| --- | --- | --- |
| CC[C@H]1CN([C@@H](CC)c2ccc(C(F)(F)F)cc2C)[C@H](CC)CN1c1nc2nncn2c2ccc(C#N)nc12 (stereo in doubt) [Compound 137] | 248 nM | 96 nM |
| Cn1c(=O)nc(N2CCC[C@]3(CC2)CC(c2ccc(OC(F)(F)F)cc2)=NO3)c2nc(C#N)ccc21 (stereo in doubt) [Compound 139] | 251 nM | 869 nM |
| CC[C@@H]1CN2c3c(c(=O)n(C)c4ccc(C#N)nc34)OC[C@@H]2CN1[C@H](c1ccc(Cl)cc1)c1ccccn1 (stereo in doubt) [Compound 156] | 124 nM | 83 nM |
| CC[C@@H]1CN2c3c(c(=O)n(C)c4ccc(C#N)nc34)OC[C@@H]2CN1[C@H](c1ccc(F)cc1)c1nc(C2CC2)no1 (stereo in doubt) [Compound 160] | 21 nM | 75 nM |
| CC[C@@H]1CN2c3c(c(=O)n(C)c4ccc(C#N)nc34)OC[C@@H]2CN1[C@@H](CC)c1ccc(C#N)cc1 (stereo in doubt) [Compound 161] | 26 nM | 53 nM |
| CCC[C@@H]1CN2c3c(c(=O)n(C)c4ccc(C#N)nc34)OC[C@@H]2CN1[C@@H](C)c1ccc(OCC2CC2)cc1F (stereo in doubt) [Compound 163] | – | 340 nM |
| CCC[C@@H]1CN2c3c(c(=O)n(C)c4ccc(C#N)nc34)OC[C@@H]2CN1[C@H](C)c1ccc(OCC2CC2)cc1F (stereo in doubt) [Compound 164] | – | 233 nM |
| CC[C@@H]1CN2c3c(c(=O)n(C)c4ccc(C#N)nc34)OC[C@@H]2CN1[C@@H](CC)c1c(F)ccc(F)c1F (stereo in doubt) [Compound 170] | 246 nM | 186 nM |
| CC[C@@H]1CN2c3c(c(=O)n(C)c4ccc(C#N)nc34)OC[C@@H]2CN1[C@H](CC)c1c(F)ccc(F)c1F (stereo in doubt) [Compound 171] | – | 1250 nM |
| CC[C@H](c1ccc(C(F)(F)F)cc1)N1C[C@H]2COc3c(c4nc(C#N)ccc4n(C)c3=O)N2C[C@H]1C (stereo in doubt) [Compound 178] | – | 299 nM |
| CC[C@@H]1CN2c3c(c(=O)n(C)c4ccc(C#N)nc34)OC[C@@H]2CN1[C@H](CC)c1ccc(F)c(F)c1 (stereo in doubt) [Compound 182] | – | 1880 nM |
| CC[C@@H]1CN2c3c(c(=O)n(C)c4ccc(C#N)nc34)OC[C@@H]2CN1[C@H](CC)c1ccc(S(C)(=O)=O)cc1 (stereo in doubt) [Compound 185] | – | 7230 nM |
| CC[C@@H]1CN2c3c(c(=O)n(C)c4ccc(C#N)nc34)OC[C@@H]2CN1[C@H](CC)c1ccc(C(F)(F)F)cn1 (stereo in doubt) [Compound 187] | – | 322 nM |
| CC[C@H]1CN([C@@H](CC)c2ccc(C3CC3)nc2)[C@H](CC)CN1c1nc2nncn2c2ccc(C#N)nc12 (stereo in doubt) [Compound 188] | – | 577 nM |
| CC[C@H]1CN([C@H](CC)c2ccc(C3CC3)nc2)[C@H](CC)CN1c1nc2nncn2c2ccc(C#N)nc12 (stereo in doubt) [Compound 189] | – | 276 nM |
| CC[C@H](c1ccc(F)c(Cl)c1)N1C[C@H]2COc3c(c4nc(C#N)ccc4n(C)c3=O)N2C[C@H]1C (stereo in doubt) [Compound 237] | – | 1330 nM |
| C[C@@H]1CN2c3c(c(=O)n(C)c4ccc(C#N)nc34)OC[C@@H]2CN1[C@@H](C)c1ccc(Cl)cc1Cl (stereo in doubt) [Compound 268] | – | 890 nM |
| Cc1ccc2oc(C3(C)CCN(c4c(C#N)c(=O)n(C)c5ccc(C#N)nc45)CC3)nc2c1 [Compound 7] | – | 372 nM |
| C[C@H]1CC2(CCN1c1nc(=O)n(C)c3ccc(C#N)nc13)CC(c1ccc(OC(F)(F)F)cc1)=NO2 (stereo partly drawn) [Compound 50] | 435 nM | – |
| CC[C@@H]1CN2c3c(c(=O)n(C)c4ccc(C#N)nc34)OC[C@@H]2CN1c1nc2cc(C)ccc2o1 [Compound 165] | – | 375 nM |
| CC[C@H]1CN2[C@@H](COC[C@@H]2c2ccc(C(F)(F)F)cc2)CN1c1nc2nncn2c2ccc(C#N)nc12 [Compound 192] | – | 3050 nM |
| CC[C@@H]1CN2c3c(c(=O)n(C)c4ccc(C#N)nc34)N(C)C[C@@H]2CN1[C@H](CC)c1ccc(C(F)(F)F)cc1 [Compound 220] | – | 3840 nM |

Second part, led by results:

| EC50 [2] | Structure (SMILES) | EC50 [1] |
| --- | --- | --- |
| 77 nM | CCC(c1ccc(F)c(F)c1)N1C[C@H]2COc3c(c4nc(C#N)ccc4n(C)c3=O)N2C[C@H]1CC (single isomer, unassigned) [Compound 183] | 156 nM |
| 70 nM | CC[C@H]1CN([C@@H](CC)c2nc(C(F)(F)F)no2)[C@H](CC)CN1c1nc2nncn2c2ccc(C#N)nc12 (stereo in doubt) [Compound 135] | 69 nM |
| 598 nM | Cn1c(=O)nc(N2CCC[C@@]3(CC2)CC(c2ccc(OC(F)(F)F)cc2)=NO3)c2nc(C#N)ccc21 (stereo in doubt) [Compound 140] | 259 nM |
| 483 nM | CC[C@@H]1CN2c3c(c(=O)n(C)c4ccc(C#N)nc34)OC[C@@H]2CN1[C@H](CC)c1ccc(C(F)(F)F)cc1F (stereo in doubt) [Compound 143] | 178 nM |
| 76 nM | CC[C@@H]1CN2c3c(c(=O)n(C)c4ccc(C#N)nc34)OC[C@@H]2CN1[C@@H](CC)c1ccc(C(F)(F)F)cc1F (stereo in doubt) [Compound 144] | 61 nM |
| 55 nM | CC[C@@H]1CN2c3c(c(=O)n(C)c4ccc(C#N)nc34)OC[C@@H]2CN1[C@@H](CC)c1c(F)cc(F)cc1F (stereo in doubt) [Compound 147] | 96 nM |
| 209 nM | CC[C@@H]1CN2c3c(c(=O)n(C)c4ccc(C#N)nc34)OC[C@@H]2CN1[C@H](CC)c1cccc(C(F)(F)F)c1 (stereo in doubt) [Compound 148] | 582 nM |
| 76 nM | CC[C@@H]1CN2c3c(c(=O)n(C)c4ccc(C#N)nc34)OC[C@@H]2CN1[C@@H](CC)c1cccc(C(F)(F)F)c1 (stereo in doubt) [Compound 149] | 162 nM |
| 43 nM | CCC[C@@H](c1ccc(C(F)(F)F)cc1)N1C[C@H]2COc3c(c4nc(C#N)ccc4n(C)c3=O)N2C[C@H]1CC (stereo in doubt) [Compound 153] | 85 nM |
| 277 nM | CCC[C@@H]1CN2c3c(c(=O)n(C)c4ccc(C#N)nc34)OC[C@@H]2CN1[C@H](C)c1ccc(C(F)(F)F)cc1 (stereo in doubt) [Compound 158] | 579 nM |
| 12 nM | CC[C@@H]1CN2c3c(c(=O)n(C)c4ccc(C#N)nc34)OC[C@@H]2CN1[C@@H](c1ccc(F)cc1)c1nc(C2CC2)no1 (stereo in doubt) [Compound 159] | 41 nM |
| 100 nM | CC[C@@H]1CN2c3c(c(=O)n(C)c4ccc(C#N)nc34)OC[C@@H]2CN1[C@H](CC)c1ccc(C#N)cc1 (stereo in doubt) [Compound 162] | 786 nM |
| 42 nM | CC[C@H]1CN([C@H](c2ccc(SC(F)(F)F)cc2)C2CC2)[C@H](CC)CN1c1nc2nncn2c2ccc(C#N)nc12 (stereo in doubt) [Compound 168] | 32 nM |
| 13 nM | CC[C@@H]1CN2c3c(c(=O)n(C)c4ccc(C#N)nc34)OC[C@@H]2CN1[C@@H](CC)c1ccc(F)cc1F (stereo in doubt) [Compound 174] | 25 nM |
| 582 nM | CC[C@@H]1CN2c3c(c(=O)n(C4CCC4)c4ccc(C#N)nc34)OC[C@@H]2CN1[C@@H](CC)c1ccc(C(F)(F)F)cc1 (stereo in doubt) [Compound 263] | – |
